Results: patent US10513519B2, “Solid forms of (1S,4S)-4-(2-(((3S,4R)-3-fluorotetrahydro-2H-pyran-4-yl)amino)-8-((2,4,6-trichlorophenyl)amino)-9H-purin-9-yl)-1-methylcyclohexane-1-carboxamide and methods of their use” (Signal Pharmaceuticals, LLC, priority 2016, dated 2019)

Test system: cancer cell lines
Assay: Multiplexed cytotoxicity assay: cell proliferation (relative cell count IC50, GI50)
Assay type: cell-based
Conditions: Homo sapiens
Experimental: (§1) Cells are grown in RPMI1640, 10% FBS, 2 mM L-alanyl-L-Glutamine, 1 mM Na pyruvate or a special medium in a humidified atmosphere of 5% CO2 at 37° C. Cells are seeded into 384-well plates and incubated in a humidified atmosphere of 5% CO2 at 37° C. Compounds are added 24 h post cell seeding. At the same time, a time zero untreated cell plate is generated. After a 72 hour incubation period, cells are fixed and stained with fluorescently labeled antibodies and nuclear dye to allow visualization of nuclei, apoptotic cells and mitotic cells. Apoptotic cells are detected using an anti-active caspase-3 antibody. Mitotic cells are detected using an anti phospho-histone-3 antibody. Compounds are serially diluted 3.16-fold and assayed over 10 concentrations in a final assay concentration of 0.1% DMSO from the highest test concentration of 10 μM. Automated fluorescence microscopy was carried out using a Molecular Devices ImageXpress Micro XL high-content imager, and images are collected with a 4× objective.
Sixteen-bit TIFF images are acquired and analyzed with MetaXpress 5.1.0.41 software. Cell proliferation is measured by the signal intensity of the incorporated nuclear dye. The cell proliferation assay output is referred to as the relative cell count. To determine the cell proliferation end point, the cell proliferation data output is transformed to percentage of control (POC) using the following formula: POC=relative cell count(compound wells)/relative cell count(vehicle wells)×100
GI50 is the concentration needed to reduce the observed growth by half. This is the concentration that inhibits the growth to the level midway between growth in untreated cells and the number of cells seeded in the well (Time zero value). The IC50 values are calculated using nonlinear regression to fit data to a sigmoidal 4 point, 4 parameter One-Site dose response model, where: y(fit)=A+[(B−A)/(1+((C/x)^D))].
as §1, with “In another experiment, cells were grown” for “Cells are grown”, “Cells were” for “Cells are”, “Compounds were” for “Compounds are”, “plate was” for “plate is”, “cells were” for “cells are”, “images were” for “images are”
Sixteen-bit TIFF images were acquired and analyzed with MetaXpress 5.1.0.41 software. Cell proliferation was measured by the signal intensity of the incorporated nuclear dye. The cell proliferation assay output was referred to as the relative cell count. To determine the cell proliferation end point, the cell proliferation data output was transformed to percentage of control (POC) using the following formula: POC=relative cell count(compound wells)/relative cell count(vehicle wells)×100
GI50 refers to the concentration needed to reduce the observed growth by half. This corresponds to the concentration that inhibits the growth to the level midway between growth in untreated cells and the number of cells seeded in the well (Time zero value). The IC50 values were calculated using nonlinear regression to fit data to a sigmoidal 4 point, 4 parameter One-Site dose response model, where: y(fit)=A+[(B−A)/(1+((C/x)^D))].

[1] = NCI-H446, 72 h, NCIH446, Lung, SCLC, 72 h
[2] = NCI-H460, 72 h, NCIH460, Lung, NSCLC, 72 h
[3] = NCI-H510A, 72 h, NCIH510A, Lung, SCLC
[4] = NCI-H520, 72 h, NCIH520, Lung, NSCLC, 72 h
[5] = NCI-H596, 72 h, NCIH596, Lung, NSCLC, 72 h
[6] = NCI-H661, 72 h, NCIH661, Lung, NSCLC, 72 h
[7] = NTERA-2-cl-D1, 72 h, NTERA2CLD1, Testis, 72 h
[8] = OE19, 72 h, OE19, Head and Neck, Esophageal, 72 h
[9] = OE33, 72 h, OE33, Head and Neck, Esophageal, 72 h
[10] = OVCAR-3, 72 h, OVCAR3, Female GU, Ovary, 72 h
[11] = PANC-1, 72 h, PANC1, Pancreas, 72 h
[12] = PSN1, 72 h, PSN1, Pancreas, 72 h
[13] = RL95-2, 72 h, RL952, Female GU, Uterus, 72 h
[14] = RPMI-6666, RPMI6666 (Hematopoietic and lymphoid, Lymphoma)
[15] = RPMI-7951, RPMI7951 (Skin, Melanoma)
[16] = RPMI-8226, 72 h, RPMI8226, Hematopoietic and lymphoid, Myeloma, 72 h
[17] = RS4-11, RS411 (Hematopoietic and lymphoid, Leukemia)
[18] = Raji, RAJI (Hematopoietic and lymphoid, Lymphoma)
[19] = Rec1, REC1 (Hematopoietic and lymphoid, Lymphoma)
[20] = SAOS-2, 72 h, SAOS2, Soft Tissue, Osteosarcoma, 72 h
[21] = SHP77, 72 h, SHP77, Lung, SCLC, 72 h
[22] = SJRH30, 72 h, SJRH30, Soft Tissue, Sarcoma, 72 h
[23] = SJSA-1, 72 h, SJSA1, Soft Tissue, Osteosarcoma, 72 h
[24] = SK-LMS-1, 72 h, SKLMS1, Soft Tissue, Sarcoma, 72 h
[25] = SK-MEL3, 72 h, SKMEL3, Skin, Melanoma, 72 h
[26] = SK-MEL-1, SKMEL1 (Skin, Melanoma)
[27] = SK-MEL-28, SKMEL28 (Skin, Melanoma)
[28] = SK-MES-1, 72 h, SKMES1, Lung, NSCLC, 72 h

Compound: C[C@]1(C(N)=O)CC[C@@H](n2c(Nc3c(Cl)cc(Cl)cc3Cl)nc3cnc(N[C@@H]4CCOC[C@H]4F)nc32)CC1 [Compound 1, cis-4-[2-{[(3S,4R)-3-fluorooxan-4-yl]amino}-8-(2,4,6-trichloroanilino)-9H-purin-9-yl]-1-methylcyclohexane-1-carboxamide]
- IC50 (NCI-H441, 72 h, NCIH441, Lung, NSCLC, 72 h): 1250 nM
- GI50 [1]: 327 nM
- IC50 [1]: > 10000 nM
- GI50 [2]: > 10000 nM
- IC50 [2]: > 10000 nM
- GI50 (NCI-H508, NCIH508 (Colon)): 28.8 nM
- IC50 (NCI-H508, NCIH508 (Colon)): 48.1 nM
- GI50 [3]: 3700 nM
- IC50 [3]: 6610 nM
- GI50 [4]: 991 nM
- IC50 [4]: 2130 nM
- GI50 [5]: 2750 nM
- IC50 [5]: > 10000 nM
- GI50 [6]: 1440 nM
- IC50 [6]: 2640 nM
- GI50 (NCI-H747, NCIH747 (Colon)): 12 nM
- IC50 (NCI-H747, NCIH747 (Colon)): 44.5 nM
- GI50 [7]: 44 nM
- IC50 [7]: 50.7 nM
- GI50 [8]: 340 nM
- IC50 [8]: > 10000 nM
- GI50 [9]: 63 nM
- IC50 [9]: 96.9 nM
- GI50 [10]: > 10000 nM
- IC50 [10]: > 10000 nM
- GI50 [11]: 41.6 nM
- IC50 [11]: 80 nM
- GI50 (PFSK-1, PFSK1 (CNS, Glioma)): 23.4 nM
- IC50 (PFSK-1, PFSK1 (CNS, Glioma)): > 10000 nM
- GI50 [12]: 8.3 nM
- IC50 [12]: 9.2 nM
- GI50 (RKOE6, RKOE6 (Colon)): 75.3 nM
- IC50 (RKOE6, RKOE6 (Colon)): 107 nM
- GI50 [13]: 9 nM
- IC50 [13]: 59.9 nM
- GI50 [14]: 80.1 nM
- IC50 [14]: 370 nM
- GI50 [15]: 71.6 nM
- IC50 [15]: 94.5 nM
- GI50 [16]: 1090 nM
- IC50 [16]: 2480 nM
- GI50 [17]: 359 nM
- IC50 [17]: 2960 nM
- GI50 [18]: 179 nM
- IC50 [18]: > 10000 nM
- GI50 [19]: 5.3 nM
- IC50 [19]: 193 nM
- GI50 [20]: 3570 nM
- IC50 [20]: 6880 nM
- GI50 (SCC-4, SCC4 (Head and Neck)): 51.2 nM
- IC50 (SCC-4, SCC4 (Head and Neck)): 108 nM
- GI50 (SCC-9, SCC9 (Head and Neck)): 117 nM
- IC50 (SCC-9, SCC9 (Head and Neck)): 280 nM
- GI50 (SCC-25, SCC25 (Head and Neck)): 43.9 nM
- IC50 (SCC-25, SCC25 (Head and Neck)): 51 nM
- GI50 (SCaBER, SCABER (Bladder)): 66.5 nM
- IC50 (SCaBER, SCABER (Bladder)): 77.2 nM
- GI50 [21]: 4790 nM
- IC50 [21]: 5820 nM
- GI50 [22]: 219 nM
- IC50 [22]: 1470 nM
- GI50 [23]: 1160 nM
- IC50 [23]: 2460 nM
- GI50 (SK-BR-3, SKBR3 (Breast)): 6810 nM
- IC50 (SK-BR-3, SKBR3 (Breast)): 8450 nM
- GI50 [24]: 146 nM
- IC50 [24]: 166 nM
- GI50 [25]: 28.4 nM
- IC50 [25]: 62.5 nM
- GI50 [26]: 1 nM
- IC50 [26]: 29.1 nM
- GI50 [27]: 27.9 nM
- IC50 [27]: 57.1 nM
- GI50 [28]: 103 nM
- IC50 [28]: 122 nM
